Assay results as given in the NIST ThermoML archive (doi:10.1016/j.fluid.2017.12.026).
± gives the expanded uncertainty stated by the source.

Settings: Coaxial cylinder method

CCCCC [pentane]
thermal conductivity (309.04 K, 260 kPa, Liquid): 0.109 ± 0.004 W/m/K
thermal conductivity (309.04 K, 261 kPa, Liquid): 0.1092 ± 0.004 W/m/K
thermal conductivity (309.04 K, 1000 kPa, Liquid): 0.1095 ± 0.004 W/m/K
thermal conductivity (309.04 K, 2000 kPa, Liquid): 0.1101 ± 0.004 W/m/K
thermal conductivity (309.04 K, 3012 kPa, Liquid): 0.1108 ± 0.004 W/m/K
thermal conductivity (309.04 K, 4151 kPa, Liquid): 0.1118 ± 0.0041 W/m/K
thermal conductivity (309.04 K, 4297 kPa, Liquid): 0.1117 ± 0.0041 W/m/K
thermal conductivity (309.04 K, 5604 kPa, Liquid): 0.1123 ± 0.0041 W/m/K
thermal conductivity (309.04 K, 6001 kPa, Liquid): 0.1125 ± 0.0041 W/m/K
thermal conductivity (309.04 K, 7000 kPa, Liquid): 0.113 ± 0.0041 W/m/K
thermal conductivity (309.04 K, 8108 kPa, Liquid): 0.1137 ± 0.0041 W/m/K
thermal conductivity (309.04 K, 9011 kPa, Liquid): 0.1142 ± 0.0042 W/m/K
thermal conductivity (309.04 K, 10008 kPa, Liquid): 0.1154 ± 0.0042 W/m/K
thermal conductivity (309.04 K, 11054 kPa, Liquid): 0.1161 ± 0.0042 W/m/K
thermal conductivity (309.04 K, 12000 kPa, Liquid): 0.1167 ± 0.0042 W/m/K
thermal conductivity (309.04 K, 12504 kPa, Liquid): 0.1168 ± 0.0042 W/m/K
thermal conductivity (309.04 K, 13000 kPa, Liquid): 0.1171 ± 0.0042 W/m/K
thermal conductivity (309.04 K, 14742 kPa, Liquid): 0.1181 ± 0.0043 W/m/K
thermal conductivity (309.04 K, 19800 kPa, Liquid): 0.1207 ± 0.0044 W/m/K
thermal conductivity (309.04 K, 19908 kPa, Liquid): 0.1205 ± 0.0044 W/m/K
thermal conductivity (309.04 K, 20004 kPa, Liquid): 0.1206 ± 0.0044 W/m/K
thermal conductivity (309.04 K, 24000 kPa, Liquid): 0.1231 ± 0.0044 W/m/K
thermal conductivity (309.04 K, 25000 kPa, Liquid): 0.1233 ± 0.0044 W/m/K
thermal conductivity (309.04 K, 28000 kPa, Liquid): 0.1241 ± 0.0045 W/m/K
thermal conductivity (309.04 K, 29100 kPa, Liquid): 0.1253 ± 0.0045 W/m/K
thermal conductivity (309.04 K, 29300 kPa, Liquid): 0.1256 ± 0.0045 W/m/K
thermal conductivity (309.04 K, 34000 kPa, Liquid): 0.1281 ± 0.0046 W/m/K
thermal conductivity (309.04 K, 35000 kPa, Liquid): 0.1286 ± 0.0046 W/m/K
thermal conductivity (309.04 K, 38000 kPa, Liquid): 0.1298 ± 0.0047 W/m/K
thermal conductivity (309.04 K, 39100 kPa, Liquid): 0.1299 ± 0.0047 W/m/K
thermal conductivity (309.04 K, 39176 kPa, Liquid): 0.13 ± 0.0047 W/m/K
thermal conductivity (309.04 K, 39350 kPa, Liquid): 0.1304 ± 0.0047 W/m/K
thermal conductivity (309.04 K, 49940 kPa, Liquid): 0.1352 ± 0.0048 W/m/K
thermal conductivity (309.04 K, 50230 kPa, Liquid): 0.1353 ± 0.0048 W/m/K
thermal conductivity (309.04 K, 50800 kPa, Liquid): 0.1352 ± 0.0048 W/m/K
thermal conductivity (315.55 K, 100 kPa, Gas): 0.01635 ± 0.00062 W/m/K
thermal conductivity (331.2 K, 2097 kPa, Liquid): 0.1035 ± 0.0038 W/m/K
thermal conductivity (331.2 K, 3000 kPa, Liquid): 0.1041 ± 0.0038 W/m/K
thermal conductivity (331.2 K, 3500 kPa, Liquid): 0.1045 ± 0.0038 W/m/K
thermal conductivity (331.2 K, 4000 kPa, Liquid): 0.1046 ± 0.0038 W/m/K
thermal conductivity (331.2 K, 5000 kPa, Liquid): 0.1053 ± 0.0039 W/m/K
thermal conductivity (331.2 K, 6000 kPa, Liquid): 0.1061 ± 0.0039 W/m/K
thermal conductivity (331.2 K, 7000 kPa, Liquid): 0.1068 ± 0.0039 W/m/K
thermal conductivity (331.2 K, 8000 kPa, Liquid): 0.1069 ± 0.0039 W/m/K
thermal conductivity (331.2 K, 9000 kPa, Liquid): 0.1072 ± 0.0039 W/m/K
thermal conductivity (331.2 K, 9500 kPa, Liquid): 0.1077 ± 0.0039 W/m/K
thermal conductivity (331.2 K, 10000 kPa, Liquid): 0.1078 ± 0.0039 W/m/K
thermal conductivity (331.2 K, 11000 kPa, Liquid): 0.1085 ± 0.004 W/m/K
thermal conductivity (331.2 K, 12000 kPa, Liquid): 0.109 ± 0.004 W/m/K
thermal conductivity (331.2 K, 13000 kPa, Liquid): 0.1094 ± 0.004 W/m/K
thermal conductivity (331.2 K, 15000 kPa, Liquid): 0.1109 ± 0.004 W/m/K
thermal conductivity (331.2 K, 16000 kPa, Liquid): 0.1115 ± 0.0041 W/m/K
thermal conductivity (331.2 K, 17000 kPa, Liquid): 0.1122 ± 0.0041 W/m/K
thermal conductivity (331.2 K, 18000 kPa, Liquid): 0.1126 ± 0.0041 W/m/K
thermal conductivity (331.2 K, 19000 kPa, Liquid): 0.1131 ± 0.0041 W/m/K
thermal conductivity (331.2 K, 20000 kPa, Liquid): 0.1139 ± 0.0041 W/m/K
thermal conductivity (331.2 K, 21000 kPa, Liquid): 0.1141 ± 0.0041 W/m/K
thermal conductivity (331.2 K, 22000 kPa, Liquid): 0.1148 ± 0.0042 W/m/K
thermal conductivity (331.2 K, 24000 kPa, Liquid): 0.1158 ± 0.0042 W/m/K
thermal conductivity (331.2 K, 25482 kPa, Liquid): 0.1167 ± 0.0042 W/m/K
thermal conductivity (331.2 K, 26404 kPa, Liquid): 0.1172 ± 0.0043 W/m/K
thermal conductivity (331.2 K, 27000 kPa, Liquid): 0.1176 ± 0.0043 W/m/K
thermal conductivity (331.2 K, 30000 kPa, Liquid): 0.1188 ± 0.0043 W/m/K
thermal conductivity (331.2 K, 31040 kPa, Liquid): 0.1193 ± 0.0043 W/m/K
thermal conductivity (331.2 K, 31081 kPa, Liquid): 0.1193 ± 0.0043 W/m/K
thermal conductivity (331.2 K, 32500 kPa, Liquid): 0.1202 ± 0.0043 W/m/K
thermal conductivity (331.2 K, 33500 kPa, Liquid): 0.1209 ± 0.0044 W/m/K
thermal conductivity (331.2 K, 34477 kPa, Liquid): 0.1211 ± 0.0044 W/m/K
thermal conductivity (331.2 K, 35500 kPa, Liquid): 0.1216 ± 0.0044 W/m/K
thermal conductivity (331.2 K, 36500 kPa, Liquid): 0.1224 ± 0.0044 W/m/K
thermal conductivity (331.2 K, 37885 kPa, Liquid): 0.1229 ± 0.0044 W/m/K
thermal conductivity (331.2 K, 38500 kPa, Liquid): 0.1231 ± 0.0044 W/m/K
thermal conductivity (331.2 K, 39000 kPa, Liquid): 0.1237 ± 0.0045 W/m/K
thermal conductivity (331.2 K, 39500 kPa, Liquid): 0.1239 ± 0.0045 W/m/K
thermal conductivity (331.2 K, 40000 kPa, Liquid): 0.1241 ± 0.0045 W/m/K
thermal conductivity (331.2 K, 41000 kPa, Liquid): 0.1242 ± 0.0045 W/m/K
thermal conductivity (331.2 K, 42000 kPa, Liquid): 0.1246 ± 0.0045 W/m/K
thermal conductivity (331.2 K, 43500 kPa, Liquid): 0.1255 ± 0.0045 W/m/K
thermal conductivity (331.2 K, 44500 kPa, Liquid): 0.1261 ± 0.0045 W/m/K
thermal conductivity (331.2 K, 45500 kPa, Liquid): 0.1266 ± 0.0046 W/m/K
thermal conductivity (331.2 K, 47000 kPa, Liquid): 0.1272 ± 0.0046 W/m/K
thermal conductivity (331.2 K, 48000 kPa, Liquid): 0.1273 ± 0.0046 W/m/K
